How the values were obtained:
platelets = test: ex vivo activation / aggregation assay on platelets taken from peripheral blood; type: cell-based; details: platelets taken from peripheral blood of treated CD-HFD mice
Source text: By using different dilution curves of CRP or Thr a reproducible and consistent analysis of the platelet-response rate was visible.
(§1) Aspirin/Clopidrogrel (Asp/Clop), a thrombocyte aggregation inhibitor, treatment reduces the capacity of platelets aggregate and prevents NASH and aberrant hepatic lipid metabolism (FIG. 5). (FIG. 5A) Asprin/Clopidrogrel treatment reduces the number of platelets in the liver (White bars: ND; Black bars: CD-HFD; Green bars: CD-HFD treated with Asp/Clop). […] (FIG. 5E) Liver to body weight ratio is rescued upon Asp/Clop treatment at 12 months of age. (FIG. 5F) Liver damage as measured by ALT levels in serum is prevented in Asp/Clop treated mice. (FIG. 5G) Triglycerides are reduced in serum of Asp/Clop treated mice at 12 months of age. (FIG. 5H) Serum cholesterol is reduced in Asp/Clop treated mice at 6 and 12 months, (FIG. 5I) Aberrant hepatic lipid metabolism and b-Oxidation is rescued in Asp/Clop treated mice—as analyzed by Real time PCR analysis for gene expression in the liver. Stars indicate significance. […] (FIG. 5J) Lipid deposition in the liver indicated by a dark staining in the T1 (FLASH) OUT phase is not detected—as in the CD-HFD. Still at the same time abdominal and subcutaneous fat are visible in Asp/Clop treated mice. (FIG. 5K) Histopathological signs of NASH (e.g. ballooned hepatocytes—see also stars) are absent in Asp/Clop treated mice.

CD-HFD fed C57BL/6 mice = test: CD-HFD mouse model of NASH and NASH-triggered HCC; type: in vivo; details: for development of NASH: MRI analysis and histological analysis; for Histopathological signs of NASH (e.g. ballooned hepatocytes): H/E stains of liver; for Aberrant hepatic lipid metabolism and b-Oxidation: Real time PCR analysis for gene expression in the liver
Source text: Indeed that approach enabled the inventors to study a chronic model of NASH in the context of metabolic syndrome, triggering subsequent HCC in C57BL/6 mice, in the absence of chemical carcinogens or genetic mutations predisposing to NASH or HCC development. CD-HFD fed mice display several long term pathologies observed in human patients: abdominal obesity, overweight, insulin resistance, liver damage, production of reactive oxygen species (ROS) fibrosis, hepatic mitochondrial damage, dyslipidemia and NASH. Moreover, HCC developed 12 months post CD-HFD start and resembled histologically, genetically and morphologically human HCC (FIG. 1). Cholesterol Diet—High Fat Diet (CD-HFD) in mice recapitulates human NASH and NASH triggered HCC pathology. (FIG. 1A) Weight development in male normal diet fed (ND) and CD-HFD fed C57BL/6 mice. (FIG. 1B) Intraperitoneal Glucose tolerance test performed with 6-month-old male ND and CD-HFD C57BL/6 mice. (FIG. 1C) Quantification of serum aminotransferase (ALT) levels in male C57BL/6 mice reflecting liver damage. (FIG. 1D) MRI analyses on livers of 6-month-old ND and CD-HFD C57BL/6 mice. T1 (fast low-angle shot [FLASH]) OUT phase: dark color indicative of steatosis. T2 TurboRare visualizes increase in subcutaneous and abdominal fat and hepatic lipid accumulation (bright regions) in CD-HFD mice. (FIG. 1E) Macroscopy and histopathology of livers from 12-month-old ND, HFD, or CD-HFD C57BL/6 mice, with arrowhead pointing towards HCC. Scale bar: 5 mm. T: Tumor. NT: Non-Tumor. ***P=0.001. (F) Representative H&E staining of 12-month-old CD-HFD C57BL/6 livers and human livers illustrating NASH. Accumulation of Mallory Denk bodies (red arrowhead), ballooned hepatocytes (brown arrowhead), and satellitosis (blue arrowhead) is similar to human NASH pathology (right image). Scale bar: 50 μm.
as §1

Compound	Activation status of platelets (ex vivo assay) (platelets)	Aggregation capacity status of platelets (ex vivo aggregation assay) (platelets)	Liver damage as measured by ALT levels in serum (CD-HFD fed C57BL/6 mice; CD-HFD fed mice)	development of obesity (CD-HFD fed C57BL/6 mice; CD-HFD fed mice)	number of HCC (HCC incidence) (CD-HFD fed C57BL/6 mice; CD-HFD fed mice)	development of NASH (CD-HFD fed C57BL/6 mice; CD-HFD fed mice)	Histopathological signs of NASH (e.g. ballooned hepatocytes) (CD-HFD fed C57BL/6 mice)	Aberrant hepatic lipid metabolism and b-Oxidation (CD-HFD fed C57BL/6 mice)	Serum cholesterol (CD-HFD fed C57BL/6 mice; at 6 and 12 months)	Triglycerides in serum (CD-HFD fed C57BL/6 mice; at 12 months of age)	insulin resistance (intraperitoneal glucose tolerance test) (CD-HFD fed C57BL/6 mice; CD-HFD fed mice)	Lipid deposition in the liver (dark staining in the T1 (FLASH) OUT phase) (CD-HFD fed C57BL/6 mice; MRI)	abdominal and subcutaneous fat (CD-HFD fed C57BL/6 mice; MRI)	Triglycerides in serum (CD-HFD fed C57BL/6 mice; at 6 or 12 months of age)	Liver to body weight ratio (CD-HFD fed C57BL/6 mice; at 12 months of age)
CCCSc1nc(N[C@@H]2C[C@H]2c2ccc(F)c(F)c2)c2nnn([C@@H]3C[C@H](OCCO)[C@@H](O)[C@H]3O)c2n1 [ticagrelor, Ticagrelor]	significantly reduced	significantly reduced	significantly reduced	do develop obesity	No HCC	blocks NASH and HCC development	not present	rescued	significantly reduced	reduced by trend					
CC1=C(CC(=O)O)c2cc(F)ccc2/C1=C\c1ccc([S+](C)[O-])cc1 (centres unmarked) [sulindac, Sulindac]			not prevented	do develop obesity		does not prevent the development of NASH	present	not rescued			insulin resistant as CD-HFD fed mice	detected	visible	not significantly reduced	not rescued
